How the values were obtained:
Conditions in all cases: 72 h
[1] = test system: HepG2; experiment: relative viability EC50 (midpoint between 100% and the lowest measured viability); higher = less toxic
[2] = test system: Vero E6; experiment: as above
[3] = test system: Calu-3; experiment: as above
[4] = test system: Caco-2; experiment: as above
[5] = test system: U2OS; experiment: as above
[6] = test system: HepG2; experiment: cell viability relative to DMSO; higher = less toxic
[7] = test system: Vero E6; experiment: as above
[8] = test system: Calu-3; experiment: as above
[9] = test system: Caco-2; experiment: as above
[10] = test system: U2OS; experiment: as above
[11] = test system: HepG2; experiment: drug sensitivity score (DSS) for viability; higher = more toxic; extreme values may be limits of the assay
[12] = test system: Vero E6; experiment: as above
[13] = test system: Calu-3; experiment: as above
[14] = test system: Caco-2; experiment: as above
[15] = test system: U2OS; experiment: as above

| Compound | relative viability EC50 [1] [µM] | relative viability EC50 [2] [µM] | relative viability EC50 [3] [µM] | relative viability EC50 [4] [µM] | relative viability EC50 [5] [µM] | cell viability ([6]; 1 nM) [%] | cell viability ([6]; 10 nM) [%] | cell viability ([6]; 100 nM) [%] | cell viability ([6]; 1000 nM) [%] | cell viability ([6]; 10000 nM) [%] | cell viability ([7]; 1 nM) [%] | cell viability ([7]; 10 nM) [%] | cell viability ([7]; 100 nM) [%] | cell viability ([7]; 1000 nM) [%] | cell viability ([7]; 10000 nM) [%] | cell viability ([8]; 1 nM) [%] | cell viability ([8]; 10 nM) [%] | cell viability ([8]; 100 nM) [%] | cell viability ([8]; 1000 nM) [%] | cell viability ([8]; 10000 nM) [%] | cell viability ([9]; 1 nM) [%] | cell viability ([9]; 10 nM) [%] | cell viability ([9]; 100 nM) [%] | cell viability ([9]; 1000 nM) [%] | cell viability ([9]; 10000 nM) [%] | cell viability ([10]; 1 nM) [%] | cell viability ([10]; 10 nM) [%] | cell viability ([10]; 100 nM) [%] | cell viability ([10]; 1000 nM) [%] | cell viability ([10]; 10000 nM) [%] | drug sensitivity score [11] | drug sensitivity score [12] | drug sensitivity score [13] | drug sensitivity score [14] | drug sensitivity score [15] |
| --- | --- | --- | --- | --- | --- | --- | --- | --- | --- | --- | --- | --- | --- | --- | --- | --- | --- | --- | --- | --- | --- | --- | --- | --- | --- | --- | --- | --- | --- | --- | --- | --- | --- | --- | --- |
| NC(=O)c1cccc(N)c1 [3-amino-benzamide] | > 10 | > 10 | > 10 | > 10 | > 10 | 104 | 81.8 | 107 | 101 | 99.8 | 95.7 | 102 | 102 | 102 | 103 | 106 | 111 | 102 | 103 | 97.2 | 98.4 | 96.2 | 93.3 | 89 | 96.8 | 99.8 | 106 | 98.3 | 104 | 98.9 | 0 | 0 | 0 | 0 | 0 |
| CCOC1O[C@H]([C@@H](COCc2ccccc2)OCc2ccccc2)[C@H](OCc2ccccc2)[C@H]1O (stereo not given in full) [tribenoside] | > 10 | > 10 | > 10 | > 10 | > 10 | 91.4 | 104 | 93.6 | 92.6 | 94.2 | 91.6 | 94.8 | 91.6 | 93.7 | 111 | 93.5 | 94.6 | 102 | 105 | 106 | 93 | 96.2 | 90.3 | 95.6 | 94 | 93.9 | 96.3 | 101 | 97.3 | 98 | 0 | 0 | 0 | 0 | 0 |
| CC#CCC(C)[C@H](O)/C=C/[C@@H]1[C@H]2C/C(=C/CCCC(=O)O)C[C@H]2C[C@H]1O (stereo not given in full) [iloprost] | > 10 | > 10 | > 10 | > 10 | > 10 | 97.8 | 90.6 | 106 | 97.1 | 98.2 | 96.2 | 101 | 97 | 98.8 | 99.3 | 99.3 | 96.8 | 85 | 91.5 | 103 | 92.2 | 105 | 100 | 95.2 | 105 | 96 | 101 | 93.3 | 98.4 | 94 | 0 | 0 | 0 | 0 | 0 |
